Results published in PMC12631873 (Advanced Science, 2025).
Square brackets hold non-standard residues; d marks the D form. Peptide text beside a SMILES is read from it. * marks the point of attachment. X1 = CN1/C(=C/C=C/C=C/C2=[N+](CCCCCC(=O)*)c3ccc(S(=O)(=O)[O-])cc3C2(C)C)C(C)(C)c2cc(S(=O)(=O)O)ccc21; Hyp = O=C(O)[C@@H]1C[C@@H](O)CN1; Nlys = NCCCCNCC(=O)O; Ahx = NCCCCCC(=O)O

What was measured:
[1] = Serum stability test (HPLC); assay type: in vitro ADME, mouse; conditions: 37 °C, HPLC UV 646 nm, n = 3; for degradation in serum (in words): 25% v/v mouse serum, 24 h and even after 48 h
Procedure: Cy5‐labeled peptidomimetic probes (10 nmol) were incubated in 25% v/v mouse serum (Biosharp, BL1053A diluted in 1× PBS) at 37 °C. Aliquots (200 µL) were taken periodically at 0 (deadtime: ≈10 min), 2, 24, and 48 h, and added to 400 µL of 3.75% trichloroacetic acid in acetonitrile at 4 °C. Then, all samples were centrifuged to remove the precipitated serum proteins at 13800 g for 10 min at 4 °C. The supernatant (150 µL) was taken to mix with 550 µL of water (with 0.1% TFA) to centrifuge again at 2630 g for 5 min at 4 °C. Five microliter of the supernatant was mixed with 200 µL of water containing 0.1% TFA as the final samples for HPLC analysis at room temperature monitored by absorbance at 646 nm with the integral area of the intact fraction recorded. The peak area for the 10 min time point was designated as 100% intact, and each peak area at successive time points was normalized to the 10 min peak to calculate the percent compound remaining. All the experiments were repeated three times.

rat chondrocytes = experiment: CCK-8 cell viability assay on rat chondrocytes; assay type: cell-based; conditions: n = 4 wells
Procedure: The cultures were maintained under standard conditions of 37 °C and 5% CO2. Chondrocytes collected from the articular cartilage of Sprague‐Dawley (SD) rats (purchased from Jennio Biotech, JNO‐720) were cultured in DMEM medium (Precell, PM150210). Human venous endothelial cells (HUVECs, purchased from iCell, iCell‐h110) were cultured in HUVEC medium (iCell, iCell‐h110‐001b). Both cells were seeded in 96‐well plates at a density of 5000 cells per well. The medium was supplemented with 10% fetal bovine serum (FBS, Precell, 164210) and penicillin‐streptomycin (1:100 diluted from a 100× stock solution, ThermoFisher, 15140122) to support cell growth and prevent bacterial contamination. […] Cell viability was assessed using the CCK‐8 assay kit (GLPBIO, GK10001−5) according to the manufacturer's instructions. After further incubation for 4 h, the optical density (OD) of the CCK‐8 solution was measured at 450 nm using a microplate reader (PerkinElmer, EnVision). […] The fluorescence images were obtained using an EVOS M7000 imaging system (Light cubes: GFP and RFP, Objective: 10×). A microscopic image was taken from the live (Calcein AM) staining of each well, and the total fluorescence signals were quantified for each image. The mean fluorescence level of each probe's group was normalized to the blank control group to estimate the relative cell viability. […]

[2] = tested on: human umbilical vein endothelial cells (HUVECs); experiment: CCK-8 cell viability assay on HUVECs; assay type: cell-based; conditions: 0-40 µM, 24 h, n = 6 wells
Procedure: The cultures were maintained under standard conditions of 37 °C and 5% CO2. Chondrocytes collected from the articular cartilage of Sprague‐Dawley (SD) rats (purchased from Jennio Biotech, JNO‐720) were cultured in DMEM medium (Precell, PM150210). Human venous endothelial cells (HUVECs, purchased from iCell, iCell‐h110) were cultured in HUVEC medium (iCell, iCell‐h110‐001b). Both cells were seeded in 96‐well plates at a density of 5000 cells per well. The medium was supplemented with 10% fetal bovine serum (FBS, Precell, 164210) and penicillin‐streptomycin (1:100 diluted from a 100× stock solution, ThermoFisher, 15140122) to support cell growth and prevent bacterial contamination. When cell confluency reached 80%, peptidomimetic probes at increasing concentrations ranging from 0 to 40 µM were added to the cell culture medium (n = 4 wells for chondrocytes, n = 6 wells for HUVECs; blank control group: 0 µM; cells cultured without probe). Following 24 h (or 72 h) of incubation, the medium was removed, and the cells were rinsed three times with 1× PBS buffer. Cell viability was assessed using the CCK‐8 assay kit (GLPBIO, GK10001−5) according to the manufacturer's instructions. After further incubation for 4 h, the optical density (OD) of the CCK‐8 solution was measured at 450 nm using a microplate reader (PerkinElmer, EnVision). For live‐dead cell staining, rat chondrocytes (5000 cells per well seeded, n = 4 wells per group) were cultured for 24 h in medium (without fetal bovine serum) containing 40 µM of each peptidomimetic probe in a 96‐well plate. […] The fluorescence images were obtained using an EVOS M7000 imaging system (Light cubes: GFP and RFP, Objective: 10×). A microscopic image was taken from the live (Calcein AM) staining of each well, and the total fluorescence signals were quantified for each image. The mean fluorescence level of each probe's group was normalized to the blank control group to estimate the relative cell viability. […] The fluorescence intensity of each well was measured by the microplate reader (Ex / Em: 620 /662 nm). […]

Question: What does the source list for `CN1/C(=C/C=C/C=C/C2=[N+](CCCCCC(=O)NCCCCCC(=O)N[C@@H](CCCNC(=N)N)C(=O)N[C@@H](CCCNC(=N)N)C(=O)N[C@@H](CCCNC(=N)N)C(=O)N[C@@H](CCCNC(=N)N)C(=O)N[C@@H](CCCNC(=N)N)C(=O)N[C@@H](CCCNC(=N)N)C(=O)N[C@@H](CCCNC(=N)N)C(=O)N[C@@H](CCCNC(=N)N)C(N)=O)c3ccc(S(=O)(=O)[O-])cc3C2(C)C)C(C)(C)c2cc(S(=O)(=O)O)ccc21` [Cy5‐R8, reference compound]?
Answer: intact compound remaining after 2 h serum incubation ([1]; 25% v/v mouse serum in 1× PBS, 10 nmol probe, peak area normalized to 10 min): no intact R8 peptide remained; degradation in serum (in words) [1]: extremely unstable; cytotoxicity to cultured chondrocytes (CCK8), in words (rat chondrocytes; 0-40 µM, 24 h): significant cytotoxicity; cytotoxicity to HUVECs (CCK-8), in words [2]: significant cytotoxicity

Question: With `CN1/C(=C/C=C/C=C/C2=[N+](CCCCCC(=O)NCCCCCC(=O)N(CCCCN)CC(=O)N3C[C@H](O)C[C@H]3C(=O)N(CCCCN)CC(=O)N3C[C@H](O)C[C@H]3C(=O)N(CCCCN)CC(=O)N3C[C@H](O)C[C@H]3C(=O)N(CCCCN)CC(=O)N3C[C@H](O)C[C@H]3C(=O)N(CCCCN)CC(=O)N3C[C@H](O)C[C@H]3C(=O)N(CCCCN)CC(=O)N3C[C@H](O)C[C@H]3C(=O)N(CCCCN)CC(=O)N3C[C@H](O)C[C@H]3C(N)=O)c3ccc(S(=O)(=O)[O-])cc3C2(C)C)C(C)(C)c2cc(S(=O)(=O)O)ccc21` [Cy5‐(NlysO)7] ({X1-Ahx}-[Nlys][Hyp][Nlys][Hyp][Nlys][Hyp][Nlys][Hyp][Nlys][Hyp][Nlys][Hyp][Nlys][Hyp]-NH2) as the compound, how does the “degradation in serum (in words)” value [1] read?
Answer: hardly degraded

Question: What about the “cytotoxicity to chondrocytes over 72 h (CCK-8)” value (rat chondrocytes; tested concentrations 0-40 µM, 72 h) of the same compound?
Answer: did not show cytotoxicity

Question: And the “cytotoxicity to HUVECs (CCK-8), in words” value [2]?
Answer: did not exhibit cytotoxicity

Question: And the “cytotoxicity to HUVECs (CCK-8), in words” value ([2]; listed as Cy5-(NlysO)7)?
Answer: no apparent cytotoxicity at the tested concentrations
